The source of these data is ChEMBL document CHEMBL5154644, “Design, Synthesis, and Structure-Activity Relationship Optimization of Pyrazolopyrimidine Amide Inhibitors of Phosphoinositide 3-Kinase γ (PI3Kγ)” (J Med Chem, 2022).

Phosphatidylinositol 4,5-bisphosphate 3-kinase catalytic subunit alpha isoform, sequence (P42336 whole entry, canonical isoform): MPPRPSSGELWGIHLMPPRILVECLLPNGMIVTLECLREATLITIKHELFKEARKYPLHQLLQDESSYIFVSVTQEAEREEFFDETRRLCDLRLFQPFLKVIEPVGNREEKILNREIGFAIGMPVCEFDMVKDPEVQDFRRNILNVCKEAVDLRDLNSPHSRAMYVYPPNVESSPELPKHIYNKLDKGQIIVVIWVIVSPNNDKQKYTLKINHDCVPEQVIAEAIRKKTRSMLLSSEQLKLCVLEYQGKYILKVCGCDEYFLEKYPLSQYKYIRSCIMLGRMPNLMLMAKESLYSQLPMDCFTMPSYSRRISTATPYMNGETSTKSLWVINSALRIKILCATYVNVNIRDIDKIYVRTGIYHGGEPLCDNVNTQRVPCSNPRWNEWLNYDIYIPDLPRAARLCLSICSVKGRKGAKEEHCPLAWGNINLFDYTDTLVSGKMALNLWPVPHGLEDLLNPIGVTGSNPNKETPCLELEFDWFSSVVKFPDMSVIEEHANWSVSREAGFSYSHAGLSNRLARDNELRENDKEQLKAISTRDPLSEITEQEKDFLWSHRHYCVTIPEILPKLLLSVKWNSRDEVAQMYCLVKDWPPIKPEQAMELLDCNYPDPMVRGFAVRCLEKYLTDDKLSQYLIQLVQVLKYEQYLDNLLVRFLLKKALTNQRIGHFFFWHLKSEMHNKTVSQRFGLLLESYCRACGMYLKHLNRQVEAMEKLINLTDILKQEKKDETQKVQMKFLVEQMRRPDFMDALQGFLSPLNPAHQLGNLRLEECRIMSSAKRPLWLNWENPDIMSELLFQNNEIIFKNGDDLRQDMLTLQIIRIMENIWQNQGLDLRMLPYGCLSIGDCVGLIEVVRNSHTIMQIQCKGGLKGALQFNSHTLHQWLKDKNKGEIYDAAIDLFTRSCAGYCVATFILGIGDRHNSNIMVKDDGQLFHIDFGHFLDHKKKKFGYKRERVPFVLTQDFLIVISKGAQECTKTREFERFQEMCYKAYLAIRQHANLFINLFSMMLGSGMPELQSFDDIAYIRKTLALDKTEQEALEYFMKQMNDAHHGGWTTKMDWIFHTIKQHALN
CYP3A4, sequence (P08684 whole entry): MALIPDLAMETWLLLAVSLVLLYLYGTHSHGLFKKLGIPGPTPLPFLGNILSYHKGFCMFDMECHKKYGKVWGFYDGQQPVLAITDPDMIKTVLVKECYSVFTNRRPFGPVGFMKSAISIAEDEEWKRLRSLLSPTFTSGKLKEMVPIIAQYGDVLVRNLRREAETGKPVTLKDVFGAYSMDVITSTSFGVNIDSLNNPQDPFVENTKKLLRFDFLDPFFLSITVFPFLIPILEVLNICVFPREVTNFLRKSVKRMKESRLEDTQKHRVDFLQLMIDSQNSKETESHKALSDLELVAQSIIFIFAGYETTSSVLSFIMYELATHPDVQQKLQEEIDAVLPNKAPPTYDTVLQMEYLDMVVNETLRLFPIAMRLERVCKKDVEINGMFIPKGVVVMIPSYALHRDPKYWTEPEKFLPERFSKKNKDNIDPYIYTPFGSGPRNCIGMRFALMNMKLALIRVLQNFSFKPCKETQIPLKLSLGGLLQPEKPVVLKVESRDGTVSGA

The first data set is filed under the species Homo sapiens. Description: Selectivity ratio of IC50 for inhibition of PI3Kdelta (unknown origin) to IC50 for inhibition of PI3Kgamma (unknown origin).
Conditions: not given
In the case of `CC(C)[C@H](N1Cc2cc(-c3ccn4nc(N)c(C(=O)NC5CC5)c4n3)cc(NS(C)(=O)=O)c2C1=O)C(F)(F)F`, the Ratio IC50 was 323.

For the compound `CCN1Cc2cc(-c3ccn4nc(N)c(C(=O)NC5CC5)c4n3)cc(C)c2C1=O`, the Ratio IC50 is 32.

Consider `Cc1cc(-c2ccn3nc(N)c(C(=O)NC4CC4)c3n2)cc2c1C(=O)N([C@@H](C1CC1)C(F)(F)F)C2`, for which the Ratio IC50 was above 566.

Take `Cc1cc(-c2ccn3nc(N)c(C(=O)N[C@H]4CC[C@H](N)CC4)c3n2)cc2c1C(=O)N([C@@H](C)C1CC1)C2`: the Ratio IC50 worked out at 2250.

The target in the next data set is T1, Phosphatidylinositol 4,5-bisphosphate 3-kinase catalytic subunit delta isoform (Homo sapiens, UniProt O00329).
T1 sequence (O00329 whole entry): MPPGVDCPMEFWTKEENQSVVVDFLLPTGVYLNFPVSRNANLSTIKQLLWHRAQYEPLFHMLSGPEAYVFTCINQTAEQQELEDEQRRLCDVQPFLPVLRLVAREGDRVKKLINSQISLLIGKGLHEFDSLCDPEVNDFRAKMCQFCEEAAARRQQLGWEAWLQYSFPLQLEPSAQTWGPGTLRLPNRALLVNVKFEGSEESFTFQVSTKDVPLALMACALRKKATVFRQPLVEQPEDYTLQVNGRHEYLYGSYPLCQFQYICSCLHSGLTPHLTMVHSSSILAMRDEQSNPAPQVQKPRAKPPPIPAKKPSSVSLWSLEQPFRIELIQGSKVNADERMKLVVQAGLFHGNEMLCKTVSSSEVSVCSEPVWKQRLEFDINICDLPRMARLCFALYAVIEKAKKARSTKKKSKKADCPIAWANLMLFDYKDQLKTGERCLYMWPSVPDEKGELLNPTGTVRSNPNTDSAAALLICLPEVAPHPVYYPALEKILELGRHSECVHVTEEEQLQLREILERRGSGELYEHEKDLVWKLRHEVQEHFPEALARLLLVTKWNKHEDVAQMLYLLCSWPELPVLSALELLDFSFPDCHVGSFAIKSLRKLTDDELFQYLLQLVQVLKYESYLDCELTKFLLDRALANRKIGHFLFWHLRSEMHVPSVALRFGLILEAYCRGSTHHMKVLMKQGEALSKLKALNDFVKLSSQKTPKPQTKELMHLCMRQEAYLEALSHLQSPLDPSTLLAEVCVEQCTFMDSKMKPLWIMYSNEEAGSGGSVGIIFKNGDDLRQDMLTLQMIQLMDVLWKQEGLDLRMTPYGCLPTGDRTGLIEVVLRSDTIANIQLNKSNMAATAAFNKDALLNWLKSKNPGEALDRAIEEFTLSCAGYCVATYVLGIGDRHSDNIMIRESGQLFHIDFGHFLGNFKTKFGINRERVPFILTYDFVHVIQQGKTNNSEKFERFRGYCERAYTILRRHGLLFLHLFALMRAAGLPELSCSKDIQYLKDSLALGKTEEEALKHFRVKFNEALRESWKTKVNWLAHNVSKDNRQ
Kind of data set: Inhibition of PI3Kdelta (unknown origin) using PIP2 as substrate preincubated for 1 hr followed by substrate addition and measured after 60 mins in presence of ATP by ADP-glo assay.
Conditions: not given
On the technique in general: ADP-Glo turns the ADP formed in a reaction into a luminescent signal.
A word on the IC50: it is the concentration at which inhibition is half-maximal. `CC(C)[C@H](N1Cc2cc(-c3ccn4nc(N)c(C(=O)NC5CC5)c4n3)cc(NS(C)(=O)=O)c2C1=O)C(F)(F)F`: the IC50 came to 2750 nM.

For `CCN1Cc2cc(-c3ccn4nc(N)c(C(=O)NC5CC5)c4n3)cc(C)c2C1=O`, the IC50 came out at 179 nM.

Turning to `Cc1cc(-c2ccn3nc(N)c(C(=O)NC4CC4)c3n2)cc2c1C(=O)N([C@@H](C1CC1)C(F)(F)F)C2`, the IC50 was above 10000 nM.

With `Cc1cc(-c2ccn3nc(N)c(C(=O)N[C@H]4CC[C@H](N)CC4)c3n2)cc2c1C(=O)N([C@@H](C)C1CC1)C2`, the IC50 came out at 4530 nM.

Tested on in a further data set: not listed separately
Kind of data set: Metabolic stability in human hepatocytes assessed as intrinsic clearance per 10^6 cells at 0.5 uM by LC-MS/MS analysis. To be noted: read-out: CLH. Format: ADME, cell-based, Hepatocyte.
With `CC(C)[C@H](N1Cc2cc(-c3ccn4nc(N)c(C(=O)NC5CC5)c4n3)cc(NS(C)(=O)=O)c2C1=O)C(F)(F)F`, the hepatocyte CLint at 0.5 µM came to 6.52 µL/min/1e6 cells.

Take `Cc1cc(-c2ccn3nc(N)c(C(=O)N[C@H]4CC[C@H](N)CC4)c3n2)cc2c1C(=O)N([C@@H](C)C1CC1)C2`: the hepatocyte CLint at 0.5 µM was 4.74 µL/min/1e6 cells.

The target in another data set is T2, Phosphatidylinositol 4,5-bisphosphate 3-kinase catalytic subunit gamma isoform (Homo sapiens, UniProt P48736). Description: Inhibition of PI3Kgamma (unknown origin) in […] stimulated human THP-1 cells assessed as reduction in Akt phosphorylation level at Ser473 residue preincubated for 60 mins followed by rhMCP-1 stimulation and measured after 2 mins by AlphaLisa assay. The format is cell-based.
T2 sequence (P48736 whole entry, canonical isoform): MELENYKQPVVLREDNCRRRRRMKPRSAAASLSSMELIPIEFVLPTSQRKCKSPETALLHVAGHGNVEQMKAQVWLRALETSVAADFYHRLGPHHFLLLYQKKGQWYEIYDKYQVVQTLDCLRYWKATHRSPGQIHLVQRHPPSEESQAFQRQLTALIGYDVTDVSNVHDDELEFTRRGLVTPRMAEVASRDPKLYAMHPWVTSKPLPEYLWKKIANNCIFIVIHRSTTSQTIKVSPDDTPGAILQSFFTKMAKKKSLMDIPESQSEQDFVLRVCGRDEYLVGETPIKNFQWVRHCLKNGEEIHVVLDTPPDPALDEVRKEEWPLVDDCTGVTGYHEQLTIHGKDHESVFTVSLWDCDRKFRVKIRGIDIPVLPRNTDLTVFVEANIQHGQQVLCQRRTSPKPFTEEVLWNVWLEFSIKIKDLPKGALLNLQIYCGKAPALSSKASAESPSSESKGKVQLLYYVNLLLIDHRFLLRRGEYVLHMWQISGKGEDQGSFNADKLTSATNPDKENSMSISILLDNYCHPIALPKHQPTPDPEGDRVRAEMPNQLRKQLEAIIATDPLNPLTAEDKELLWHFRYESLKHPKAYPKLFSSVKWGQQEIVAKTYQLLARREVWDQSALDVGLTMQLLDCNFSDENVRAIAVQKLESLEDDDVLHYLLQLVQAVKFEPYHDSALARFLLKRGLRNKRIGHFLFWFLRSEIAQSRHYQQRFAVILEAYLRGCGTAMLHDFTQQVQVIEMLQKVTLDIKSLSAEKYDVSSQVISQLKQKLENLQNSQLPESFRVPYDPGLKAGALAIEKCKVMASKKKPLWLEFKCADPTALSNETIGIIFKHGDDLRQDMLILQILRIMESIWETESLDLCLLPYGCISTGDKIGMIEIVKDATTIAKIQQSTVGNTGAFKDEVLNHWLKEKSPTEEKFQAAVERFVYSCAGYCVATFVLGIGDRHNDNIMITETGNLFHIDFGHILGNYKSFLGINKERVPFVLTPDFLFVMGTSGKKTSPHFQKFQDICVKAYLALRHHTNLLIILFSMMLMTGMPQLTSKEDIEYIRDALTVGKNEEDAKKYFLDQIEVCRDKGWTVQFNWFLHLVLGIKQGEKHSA
Conditions: not given
(In general: Bead proximity is the source of the signal in Alpha formats.)
As to `CC(C)[C@H](N1Cc2cc(-c3ccn4nc(N)c(C(=O)NC5CC5)c4n3)cc(NS(C)(=O)=O)c2C1=O)C(F)(F)F`, the IC50 was found to be 150 nM.

For the compound `CCN1Cc2cc(-c3ccn4nc(N)c(C(=O)NC5CC5)c4n3)cc(C)c2C1=O`, the IC50 stood at 338 nM.

`Cc1cc(-c2ccn3nc(N)c(C(=O)NC4CC4)c3n2)cc2c1C(=O)N([C@@H](C1CC1)C(F)(F)F)C2`: the IC50 stood at 795 nM.

As to `Cc1cc(-c2ccn3nc(N)c(C(=O)N[C@H]4CC[C@H](N)CC4)c3n2)cc2c1C(=O)N([C@@H](C)C1CC1)C2`, the IC50 was 276 nM.

Tested on in the next data set: not listed separately
Kind of data set: Metabolic stability in rat hepatocyte assessed as intrinsic clearance per 10^8 cells at 0.5 uM by LC-MS/MS analysis. The format is ADME, cell-based. To be noted: hepatocytes.
For `CC(C)[C@H](N1Cc2cc(-c3ccn4nc(N)c(C(=O)NC5CC5)c4n3)cc(NS(C)(=O)=O)c2C1=O)C(F)(F)F`, the hepatocyte intrinsic clearance is 3.65 µL/min.

As for `Cc1cc(-c2ccn3nc(N)c(C(=O)N[C@H]4CC[C@H](N)CC4)c3n2)cc2c1C(=O)N([C@@H](C)C1CC1)C2`, the hepatocyte intrinsic clearance is 19.3 µL/min.

A further data set addresses T2, Phosphatidylinositol 4,5-bisphosphate 3-kinase catalytic subunit gamma isoform. Description: Inhibition of PI3Kgamma (unknown origin) using PIP2 as substrate preincubated for 1 hr followed by substrate addition and measured after 60 mins in presence of ATP by ADP-glo assay.
Conditions: not given
Regarding `CC(C)[C@H](N1Cc2cc(-c3ccn4nc(N)c(C(=O)NC5CC5)c4n3)cc(NS(C)(=O)=O)c2C1=O)C(F)(F)F`, the IC50 was determined as 8.5 nM.

Turning to `CCN1Cc2cc(-c3ccn4nc(N)c(C(=O)NC5CC5)c4n3)cc(C)c2C1=O`, the IC50 came to 5.6 nM.

In the case of `Cc1cc(-c2ccn3nc(N)c(C(=O)NC4CC4)c3n2)cc2c1C(=O)N([C@@H](C1CC1)C(F)(F)F)C2`, the half-maximal inhibitory concentration (IC50) is 17.7 nM.

For `Cc1cc(-c2ccn3nc(N)c(C(=O)N[C@H]4CC[C@H](N)CC4)c3n2)cc2c1C(=O)N([C@@H](C)C1CC1)C2`, the 50% inhibitory concentration (IC50) amounted to 2 nM.

The next data set concerns the target Phosphatidylinositol 4,5-bisphosphate 3-kinase catalytic subunit alpha isoform (Homo sapiens, UniProt P42336). Kind of data set: Inhibition of PI3Kalpha (unknown origin) using PIP2 as substrate preincubated for 1 hr followed by substrate addition and measured after 60 mins in presence of ATP by ADP-glo assay.
Conditions: not given
In the case of `CC(C)[C@H](N1Cc2cc(-c3ccn4nc(N)c(C(=O)NC5CC5)c4n3)cc(NS(C)(=O)=O)c2C1=O)C(F)(F)F`, the IC50 is 3.68 µM.

`CCN1Cc2cc(-c3ccn4nc(N)c(C(=O)NC5CC5)c4n3)cc(C)c2C1=O`: the IC50 turned out to be 0.118 µM.

`Cc1cc(-c2ccn3nc(N)c(C(=O)NC4CC4)c3n2)cc2c1C(=O)N([C@@H](C1CC1)C(F)(F)F)C2`: the 50% inhibitory concentration (IC50) is above 10 µM.

In the case of `Cc1cc(-c2ccn3nc(N)c(C(=O)N[C@H]4CC[C@H](N)CC4)c3n2)cc2c1C(=O)N([C@@H](C)C1CC1)C2`, the IC50 is above 10 µM.

The species entered for another data set is Homo sapiens. Kind of data set: Selectivity ratio of IC50 for inhibition of PI3Kalpha (unknown origin) to IC50 for inhibition of PI3Kgamma (unknown origin).
Conditions: not given
With `CCN1Cc2cc(-c3ccn4nc(N)c(C(=O)NC5CC5)c4n3)cc(C)c2C1=O`, the Ratio IC50 was 21.

`Cc1cc(-c2ccn3nc(N)c(C(=O)NC4CC4)c3n2)cc2c1C(=O)N([C@@H](C1CC1)C(F)(F)F)C2`: the Ratio IC50 was above 566.

Consider `Cc1cc(-c2ccn3nc(N)c(C(=O)N[C@H]4CC[C@H](N)CC4)c3n2)cc2c1C(=O)N([C@@H](C)C1CC1)C2`, for which the Ratio IC50 was above 4960.

A further data set addresses CYP3A4 (Homo sapiens, UniProt P08684). Description: in vitro. To be noted: human liver microsomes, probe midazolam. In general terms: Liver microsomes are vesicles of endoplasmic reticulum, rich in cytochrome P450 enzymes.
Description: Time dependent inhibition of CYP3A4 in human liver microsomes at 10 uM using midazolam as substrate preincubated for 30 mins in presence of NADPH by LC/MS/MS analysis relative to control
What is called inhibition is the change of the read-out against control, counted positive when it falls. For the compound `CC(C)[C@H](N1Cc2cc(-c3ccn4nc(N)c(C(=O)NC5CC5)c4n3)cc(NS(C)(=O)=O)c2C1=O)C(F)(F)F`, the inhibition at 30 min, 10 µM was determined as 55%.
